According to patent US20240166629A1, “HETEROCYCLIC COMPOUNDS CAPABLE OF ACTIVATING STING” (Boehringer Ingelheim International GmbH, priority 2022, published 2024):

Tests used:
[1] = target: T1, human STING variant R293Q (Homo sapiens, UniProt Q86WV6, H232R/R293Q); experiment: THP1-Blue ISG IRF-inducible SEAP reporter assay, STING R293Q-variant; assay type: cell-based; settings: THP1-Blue ISG hSTING KO cells expressing STING R293Q; 24 hours incubation
T1 construct: expressed in transfected cells; host or cells: THP1-Blue ISG hSTING KO clone, retroviral MSCV-ires-GFP-Blasti
From the text: (§1) Activation of the STING protein expressed in cell lines results in an increase of interferon production. By the stable integration of an interferon regulatory factor (IRF)-inducible SEAP gene (secreted embryonic alkaline phosphatase) reporter construct the functional interferon signaling pathway can be monitored. Using Invivogen's THP1-Blue™ ISG colorimetric enzyme assay and a suitable optical density (OD) reader the activity of SEAP can be detected and quantified. This technique could be used to characterize pharmacological modification of the STING pathway.
(§2) Several single nucleotide polymorphisms have been identified in the human STING gene. To determine the activity of the above described compounds, THP1-Blue™ ISG reporter cell lines expressing the different human STING variants have been generated. To do so, the endogenous human STING was first deleted using the CRISPR/CAS9 system: THP1-Blue ISG cells were electroporated with ALL-IN-ONE CRISPR plasmids targeting the STING gene (purchased from Sigma encoding the gRNA and GFP as a reporter gene for successful transduction). GFP positive cells then were sorted 24 h post transfection and expanded. Cells were then dispersed in semisolid methocel medium to allow single cell clone isolations. Clones were then screened for cGAMP responsiveness using the Quanti-Blue™ reporter assay. Non-responsive clones were subsequently analysed for STING loss by western blotting and sequencing of the STING locus.
(§3) For the overexpression of the human STING variants, a confirmed THP1-Blue™ ISG hSTING KO clone was transduced with individual retroviral plasmids (MSCV-ires-GFP-Blasti) encoding the allelic variants of hSTING (WT (H232R), HAQ, R232H, AQ and R293Q). Transduced cells were sorted for different levels of GFP fluorescence and STING allele expression was analysed by western blot.
(§4) Measurements of SEAP activity were performed in THP1-Blue™ ISG cells stably expressing the different human STING isoforms and the IRF-inducible SEAP reporter construct. Cells were cultivated in RPMI1640 medium with 10% fetal calf serum, 50 μg/ml Penicillin-Streptomycin, 100 μg/ml Zeocin, and 100 μg/ml Normocin in a 37°, 95% humidity and 5% CO2 incubator.
(§5) In preparation for the assay, the cells were distributed into the assay plates with a density of 10000 cells/15 μL per well. Compounds were prepared by an 8 point serial dilution in 50% aqueous DMSO and a final dilution step into medium to ensure a final DMSO concentration of 0.5% in the assay. 5 μL of diluted compounds were added to the plates, followed by a 24 hours incubation at 37° C.
(§6) At the day of the assay, 75 μl per well of Quanti-Blue™ reagent was added to all wells of the plate and the plate was incubated another 30 minutes at 37° C. The OD at 620 nm was measured on the EnVision reader (PerkinElmer).

[2] = tested on: Human STING (hSTING, UNIPROT entry Q86WV6, residues 155-341); experiment: Interaction with hSTING by differential scanning fluorimetry (DSF); assay type: binding; settings: 100 μM test compound, 5 μM hSTING protein
Description: In DSF, the temperature at which a protein unfolds, also called the melting temperature Tm, is measured by changes in fluorescence of a dye that binds to the hydrophobic parts of the protein. Tm shifts upon binding of a small molecule are correlated with the binding affinity of this small molecule. As target protein, Human STING (hSTING, UNIPROT entry Q86WV6, residues 155-341, MW: 21578.4 Da; protein stock solution: c=1302 μM stock solution in 20 mM Tris, 100 mM NaCl, 2 mM TCEP pH 8.8) was used, as assay buffer 20 mM Tris, 150 mM NaCl pH7.5 was added where and as necessary.
Final concentrations of components in assay: 100 μM test compounds, 5 μM target protein, “5×” SYPR Orange (from stock solution SYPRO orange solution in DMSO (invitrogen cat.-no. 56650-500ul), concentration “5000×”)
Assay Procedure: • 1) Dilutions of compound stock solutions (10 mM in DMSO) were prepared in assay buffer (20 mM Tris, 150 mM NaCl; pH7.5) • 2) 5 μl fluorescent dye stock solution (5000×SYPRO Orange in DMSO) was mixed with 19 μl target protein (1302 μM) and 976 μl assay buffer. • 3) 2 μl of this protein-dye-mixture (25×SYPRO Orange and 25 μM Protein) was added to 8 μl diluted compound solution as prepared in step 1. Final volume was 10 μl. • 4) With every 20 compounds, two negative controls were measured. • 5) The plates were prepared for duplicate measurement and centrifuged for 2 min at 1000 g. • 6) For the measurement, a CFX384 Real-Time System (Bio-Rad) was used. The run consisted of 140 cycles with 0.5° C./cycle (temperature ramp 15 s/cycle, 25° C. to 95° C.).
Data analysis: The melting curves were processed in Bio-Rad CFX Manager. Peak type was set to “negative”. Two replicates of TM (melting temperature) measurements were averaged and the standard deviation was calculated.

human STING variant HAQ = target: T2, human STING variant HAQ (Homo sapiens, UniProt Q86WV6, G230A/H232R/R293Q/R71H); experiment: THP1-Blue ISG IRF-inducible SEAP reporter assay, STING HAQ-variant; assay type: cell-based; settings: THP1-Blue ISG cells expressing STING HAQ (parental or re-introduced); 24 hours incubation; SEAP OD 620 nm
T2 construct: expressed in transfected cells; host or cells: THP1-Blue ISG: either parental cells (endogenous HAQ) or hSTING KO clone retrovirally transduced with HAQ
From the text: as §1, §2, §3, §4, §5, §6
Data of EC50 values on STING HAQ-variant can be found in table 2a. Shown data below were either derived from the parental THP1-Blue™ ISG cell lines (which express endogenously HAQ) or from genetically engineered THP1-Blue™ ISG cell lines in which first STING has been knocked-out and the HAQ specific STING isoform has been re-introduced as described above.

[3] = target: T3, human STING variant R232H (Homo sapiens, UniProt Q86WV6); experiment: THP1-Blue ISG IRF-inducible SEAP reporter assay, STING R232H-variant; assay type: cell-based; settings: THP1-Blue ISG hSTING KO cells expressing STING R232H; 24 hours incubation
T3 construct: expressed in transfected cells; host or cells: THP1-Blue ISG hSTING KO clone, retroviral MSCV-ires-GFP-Blasti
From the text: as §1, §2, §3, §4, §5, §6

in vitro = settings: human, Caco-2, pH 7.4
Description: Caco-2 cells were obtained from Leibniz Institute DSMZ-German Collection of Microorganisms and Cell Cultures (Braunschweig, Germany) and cultured in DMEM (Dulbecco's modified Eagle medium) containing (in final concentrations) 10% FCS (fetal calf serum), 1% NEAA (non-essential amino acids), 2 mM Glutamin, 100 U/mL Penicillin and 100 μg/mL Streptomycin. Caco-2 cells were seeded either onto 24-well Transwell inserts (Corning, #3379) for bidirectional permeability assays at a density of 160,000 cells/cm^2 and cultured for 3 weeks, with media change on every second day.
For bidirectional permeability assays 10 mM DMSO stock solutions were diluted in transport buffer (final concentrations: 128.13 mM NaCl, 5.36 mM KCl, 1 mM MgSO4, 1.8 mM CaCl2, 4.17 mM NaHCO3, 1.19 mM Na2HPO4, 0.41 mM NaH2PO4, 15 mM 2-[4-(2-hydroxyethyl)piperazin-1-yl]ethanesulfonic acid (HEPES), 20 mM glucose, pH 7.4) containing 0.25% bovine serum albumin to a final concentration of 10 μM of the test compounds and added to the apical or basal compartment. Cells were incubated with the compounds for up to 2 h. Samples from the opposite compartment were taken at different timepoints.
Compound concentrations in the compartments were quantified using a RapidFire-based high-throughput HPLC/MS/MS system (high performance liquid chromatography/mass spectrometry; BioCius) that was customized to a fully automated and flexible platform, termed RIAS. In this modified setup, the sample was aspirated by a vacuum pump into a 10 μL sample loop for 250 ms and flushed onto a C4 cartridge (3.8 μL bed volume; BioCius) with the aqueous mobile phase (99.9% water, 0.09% formic acid, and 0.01% TFA; flow rate 1.5 mL/min). Prior to bioanalysis samples were spiked with internal standard solution and diluted with acetonitrile (ACN) for protein precipitation. Measurement was operated in multiplereaction monitoring (MRM) mode. Quantification was performed using external calibration. A solid-phase extraction step retained the analyte for 3000 ms while interfering matrix (e.g., buffer components) was removed. With a simple step gradient, the analyte was back-eluted from the cartridge for 3,000 ms with the organic mobile phase (99.9% acetonitrile/methanol [1:1, v:v], 0.09% formic acid, and 0.01% TFA) and flushed into the mass spectrometer at a flow rate of 1.25 mL/min. Afterwards, the cartridge was reequilibrated with the aqueous mobile phase for 500 ms (flow rate 1.5 mL/min). The RapidFire software and a customized control software were obtained from BioCius. QuickQuan 2.3, Xcalibur 2.0.7, and XDK 2.1.0.25 were used to operate the TSQ Vantage mass spectrometer (ThermoFisher, San Jose, CA) integrated to the RapidFire system. Mass spectral data-processing software QuickCalc 7.1.9 was purchased from ThermoFisher. The Master software for the RIAS was programmed in-house using LabVIEW (version 8.6.1; National Instruments, Austin, TX). Data analysis was performed in AssayExplorer 3.2 (Symyx, Sunnyvale, CA), and correlation plots were visualized in Spotfire version 2.2.0 (TIBCO, Palo Alto, CA).
Apparent permeability coefficients in the apical to basal direction (Papp,AB) and in the basal to apical direction (Papp,BA) and efflux ratios were calculated as follows:
Efflux ratio=Papp,BA/Papp,AB
where Q is the amount of compound recovered in the receiver compartment after the incubation time t, C0 the initial compound concentration given to the donor compartment, and s the surface area of the Transwell inserts. […] In addition, transepithelial electrical resistance (TEER) values are measured for each plate before the permeability assay, and total recovery in donor and receiver compartments was determined for each compound.

[4] = target: T4, human STING variant H232R (WT) (Homo sapiens, UniProt Q86WV6, H232R); experiment: THP1-Blue ISG IRF-inducible SEAP reporter assay, STING H232R-variant; assay type: cell-based; settings: THP1-Blue ISG hSTING KO cells expressing STING H232R; 24 hours incubation
T4 construct: expressed in transfected cells; host or cells: THP1-Blue ISG hSTING KO clone, retroviral MSCV-ires-GFP-Blasti
From the text: as §1, §2, §3, §4, §5, §6

human STING variant AQ = target: T5, human STING variant AQ (Homo sapiens, UniProt Q86WV6, G230A/H232R/R293Q); experiment: THP1-Blue ISG IRF-inducible SEAP reporter assay, STING AQ-variant; assay type: cell-based; settings: THP1-Blue ISG hSTING KO cells expressing STING AQ; 24 hours incubation
T5 construct: expressed in transfected cells; host or cells: THP1-Blue ISG hSTING KO clone, retroviral MSCV-ires-GFP-Blasti
From the text: as §1, §2, §3, §4, §5, §6

T4 sequence (Q86WV6 whole entry H232R): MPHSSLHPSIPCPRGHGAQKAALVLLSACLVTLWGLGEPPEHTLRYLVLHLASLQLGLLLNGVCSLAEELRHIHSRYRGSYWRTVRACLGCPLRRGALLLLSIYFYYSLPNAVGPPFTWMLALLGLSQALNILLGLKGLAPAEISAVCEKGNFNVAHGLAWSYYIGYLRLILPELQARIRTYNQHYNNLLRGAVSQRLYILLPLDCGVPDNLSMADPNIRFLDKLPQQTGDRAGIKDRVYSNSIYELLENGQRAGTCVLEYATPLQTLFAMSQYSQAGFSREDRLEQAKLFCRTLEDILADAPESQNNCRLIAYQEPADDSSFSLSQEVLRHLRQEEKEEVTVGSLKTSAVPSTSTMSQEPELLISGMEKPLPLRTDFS
T1 sequence (Q86WV6 whole entry H232R/R293Q): as the sequence (Q86WV6 whole entry H232R) above, with R293Q counted along it
T5 sequence (Q86WV6 whole entry G230A/H232R/R293Q): as the sequence (Q86WV6 whole entry H232R) above, with G230A, R293Q counted along it
T2 sequence (Q86WV6 whole entry R71H/G230A/H232R/R293Q): as the sequence (Q86WV6 whole entry H232R) above, with R71H, G230A, R293Q counted along it
T3 sequence (Q86WV6 whole entry, stated change not applied): as the sequence (Q86WV6 whole entry H232R) above, with R232H counted along it

EC50 [1]: 100 nM
EC50 (human STING variant HAQ): 100 nM
EC50 [3]: 100 nM
Papp A→B at 10 μM (in vitro): 11 ×10⁻⁶ cm/s
efflux ratio at 10 μM (in vitro): 1.4
EC50 [4]: 100 nM
EC50 (human STING variant AQ): 100 nM
SMILES: Cc1c(Cl)ccc2c(-c3cccc4nn(C)cc34)nn(-c3ccc(N4C[C@@H]5[C@H](C4)[C@H]5C(=O)O)nc3)c12 [compound 8, (1R,5S,6r)-3-(5-(6-chloro-2′,7-dimethyl-1H,2′H-[3,4′-biindazol]-1-yl)pyridin-2-yl)-3-azabicyclo[3.1.0]hexane-6-carboxylic acid]
TM (changes in TM, thermal shift) [2]: 22 K
